The record followed here is ChEMBL document CHEMBL1121645, “Pyrimidine acyclic nucleosides, 1-[(2-Hydroxyethoxy)methyl]pyrimidines as candidate antivirals” (J Med Chem, 1981).

Assay [1] has as its system Thymidine kinase (Human alphaherpesvirus 1). Nature of the assay: Compound was evaluated for the inhibitory activity against HSV-1 encoded thymidine kinase at 300 uM.
The test system is the same in assay [2]. Nature of the assay: Compound was evaluated for the inhibitory activity against HSV-1 encoded thymidine kinase at 300 uM; 45-56% inhibition.

Usually inhibition stands for the change of the read-out against control, counted positive when it falls. A low value points to a response near the control.

As for `O=c1[nH]c(=O)n(COCCO)cc1I`, the inhibition in assay [1] was determined as 56%.

In assay [1], `O=c1[nH]c(=O)n(COCCO)cc1C(F)(F)F` yielded an inhibition of 56%. In assay [2], `O=C(OCCOCn1ccc(=O)[nH]c1=O)c1ccccc1` yielded an inhibition of 45%.
